Series [1] is described as follows: Microsomal stability assay, human liver microsomes. The series is classed as in vitro ADME. The conditions noted are these: for amount of remaining compound: non-radiolabeled, 40 min. The procedure: Microsomal stability assays The tracer [^18F][A]-d2 or [^18F][A] was dissolved in potassium phosphate (Kpi) buffer (100 mM) at concentration 500-600 μCi/mL. The non-radioactive 7 and 10 were dissolved in Kpi buffer at 10 μM concentration. The reaction vessel was charged with human or mouse liver microsome suspension (12.5 μL, 20 mg/mL) followed by Kpi buffer (388 μL, 10 mM), NADPH (50 μL, 10 mM) and incubated at 37° C. for 5-10 min. A solution of the radioactive [^18F][A]-d2 or [^18F][A] (50 μL, […]) or non-radioactive 7 or […] (50 μL, 10 μM) were added to the reaction vessel and the mixture was incubated at 37° C. […] The supernatant was analyzed by LCMS (System E).
(Liver microsomes are a subcellular fraction often used to study metabolism.)

A short description of series [2]: Microsomal stability assay, mouse liver microsomes. The format is in vitro ADME. The conditions noted are these: 5 min; for fraction of unmetabolized compound: non-radiolabeled. On the procedure:
(§1) Microsomal stability assays The tracer [^18F][A]-d2 or [^18F][A] was dissolved in potassium phosphate (Kpi) buffer (100 mM) at concentration 500-600 μCi/mL. The non-radioactive 7 and 10 were dissolved in Kpi buffer at 10 μM concentration. The reaction vessel was charged with human or mouse liver microsome suspension (12.5 μL, 20 mg/mL) followed by Kpi buffer (388 μL, 10 mM), NADPH (50 μL, 10 mM) and incubated at 37° C. for 5-10 min. A solution of the radioactive [^18F][A]-d2 or [^18F][A] (50 μL, 250-300 μCi) or non-radioactive 7 or 8 (50 μL, 10 μM) were added to the reaction vessel and the mixture was incubated at 37° C. Aliquots (50 μL) of the reaction mixture were taken at 5, 15 and 45 minutes post addition of the tested compound, mixed with ice-cold acetonitrile (100 μL) and centrifuged. The supernatant was analyzed by LCMS (System E).

A short description of series [3]: Dynamic microPET imaging in mice. The series is classed as in vivo, mice (C57BL/6). The procedure:
MicroPET Imaging The PET imaging was performed on Inveon PET/CT scanner (Siemens Medical Solutions USA Inc.). Animals anesthetized with sevoflurane were placed head-first, prone position on the scanner bed and dynamic 45 min scans were initiated. Approximately 3.7 MBq of ^18F-radiolabeled tracer in isotonic solution (100-130 μL) was administered as 60 second intravenous infusion via the tail vein. Body temperature was measured by a rectal probe and maintained with warm air flow at 37° C. Full-body iterative image reconstructions were obtained using maximum a posteriori algorithm (MAP, hyperparameter β 0.05) and corrected for signal attenuation using the tissue density obtained from CT. Projections were created with PMOD 3.305 (PMOD Technologies, Ltd., Zurich, Switzerland) and used to obtain quantitative activity levels in each organ of interest using region-of-interest analysis.

Series [4] deals with tau (NFTs) in human brain tissues. Kind of series: Autoradiography on postmortem human brain tissues. The format is binding. The procedure:
Autoradiography The tracer [^18F][A] or [^18F][A]-d2 was dissolved in PBS containing 5% DMSO and 5% ethanol at final concentration 40 μCi/mL. Then 0.5 ml of stock solution was transferred to a microscope slide with 5 μm thick freshly dried section of a tissue and incubated for 90 min at room temperature. The slides were washed by dipping into following solutions: PBS for 1 min, 70% ethanol 2 min, 30% ethanol 2 min and PBS 1 min. The samples were dried at room temperature for 30 min and exposed to phosphorimager plate for 20 h. The exposed plates were scanned at 25 μm resolution.
Autoradiographic evaluation of [^18F][A] and [^18F][A]-d2 was performed using brain tissues collected postmortem from human donors. […] The positive staining was found in grey matter of tissues containing high level of NFTs and high AD-amyloid characterized as Braak score 5. […] The NFT and Aβ-amyloid burden was measured by standard immunohistochemical methods.

The nature of series [5]: Microsomal stability assay, rhesus liver microsomes. The format is in vitro ADME. The procedure:
as §1, with “E). The radiolabeled tracers [^18F][A] and [^18F][A]-d2 (n=3) were incubated with human, rhesus or mouse liver microsome suspension with or without NADPH at 37° C. and the mixture was analyzed for a presence of radioactive metabolites at 5, 15 and 45 min. In the presence of mouse and rhesus liver microsomes, both the [^18F][A] and [^18F][A]-d2 metabolized rapidly to ^18F-fluoride (retention time (rt)=0.38 min), and two radioactive metabolites M2 and M1 (rt=1.2 and 1.4 min). […]” for “E).”

For series [6], the target named is tau aggregates in AD patient tissues. The conditions noted are these: cited from earlier work.

Consider `FCCC1CCN(c2ccn3c(n2)nc2ccccc23)CC1` [[A], 2-(1-(benzo[4,5]imidazo[1,2-a]pyrimidine-2-yl)piperidin-4-yl)-1-fluoroethane, reference compound], for which the “amount of remaining compound” value in series [1] is 15%. In addition, the “fraction of unmetabolized compound” value in series [2] turned out to be 2%. The same molecule had a bone uptake in series [3] (n=6, 30-45 min post tracer injection) of 31.2±4.8 % ID/g.

Regarding `[2H]C([2H])(F)CC1CCN(c2ccn3c(n2)nc2ccccc23)CC1` [[A]-d2, 1,1-dideutero-2-(1-(benzo[4,5]imidazo[1,2-a]pyrimidine-2-yl)piperidin-4-yl)-1-fluoroethane], the “amount of remaining compound” value in series [1] is given as 56%. Further, the “fraction of unmetabolized compound” value in series [2] is 11%.

As to `[18F]CCC1CCN(c2ccn3c(n2)nc2ccccc23)CC1` [[^18F][A], 2-(1-(benzo[4,5]imidazo[1,2-a]pyrimidine-2-yl)piperidin-4-yl)-1-[^18F]fluoroethane, reference compound], the “staining of negative control tissues” value in series [4] (high or moderate amyloid burden but no NFTs, Braak score 3 or 2) was “not positively stained”. Moreover, in series [4] (human brain tissues, positive staining in grey matter with high NFTs, Braak score 5), the autoradiographic binding pattern entry is “tau specific binding patterns”. Moreover, the “fraction attributed to parent compound” value in series [1] (radiolabeled, 45 min incubation, n=3) is reported as 35.7±0.9%. For the same molecule, the “amount of parent compound” value in series [2] (radiolabeled, n=3) stood at 1.6±0.9%. For the same molecule, the “stability of parent compound compared with mouse liver microsomes” value in series [5] is given as “slightly more stable”. The “uptake in liver and kidneys, comparison of the two tracers” value in series [3] (n=6) is given as “indistinguishable”. Besides, in series [3] (n=6, i.v., dynamic PET), the “peak uptake in brain” value came out at 8.3±2.0 % ID/g. For the same molecule, the Kd in series [6] (AD patient tissues, read-out: affinity for tau aggregates in AD patient tissues) was 22 nM. Besides, the “selectivity for tau over Aβ amyloid” value in series [6] is listed as 27 fold.

Source of the values: US12214058B2, “Imaging methods using deuterated compounds” (Genentech, Inc., priority 2014, dated 2025).
